According to patent US11077100B2, “Tetrahydroquinoline derivatives as P2X7 receptor antagonists” (RaQualia Pharma Inc., priority 2017, dated 2021):

Legend:
human P2X7 = human P2X7 (Homo sapiens (Human), UniProt Q99572); assay: Human P2X7 functional assay (Ca2+ influx, Fluo-4, FDSS); format: cell-based; conditions: antagonistic activity with respect to the human P2X7 receptor; BzATP final concentration 80 microM
Summary of the method: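 Ca2+ influx was triggered with BzATP (80 μM final) after a 10-min room-temperature compound preincubation and monitored with Fluo-4 (ex 480/em 540 nm) on FDSS. The cells were HEK293 stably carrying FLAG-tagged human P2X7. Duplicate-averaged 7-point dose-responses gave IC50s.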

rat P2X7 = rat P2X7 (Rattus norvegicus (Rat), UniProt Q64663); assay: Rat P2X7 functional assay (Ca2+ influx, Fluo-4, FDSS); format: cell-based; conditions: HEK293 cells stably expressing rat P2X7; BzATP final 10 microM; 7-point dose-response; read-out: Antagonistic activities with respect to the rat P2X7 receptor (IC50)
Experimental: Rat P2X7 Functional Assay
The functional activity of compounds was determined by measuring changes in intracellular calcium concentration using a Ca^2+-sensitive fluorescent dye, Fluo-4 (Molecular Probes). The changes in fluorescent signal were monitored by the cell imaging technology by Hamamatsu Photonics's Functional Drug Screening System (FDSS). Increases in intracellular Ca^2+ concentration were readily detected upon activation with BzATP.
HEK293 cells stably expressing rat P2X7 (GenBank accession number NM_019256) were grown in Corning CellBIND cell culture flasks, in a 5% CO2 humidified incubator to about 80% confluence. Media composition consisted of Dulbecco's Modified Eagle Medium (high glucose), 10% fetal bovine serum ([…]), 100 units/[…] Penicillin, 100 microg/mL Streptomycin and 250 microg/mL Geneticine.
1. […] Plate-out HEK293-rat P2X7 cells (40 microL medium containing 5,000 cells per well) into poly-D-lysine coated 384-well plates (BD Falcon) at 24 h prior to assay.
2. Incubate at 37° C. in 5% CO2.
3. Incubate the plate at 37° C. in 5% CO2 for 1 h.
5. Test compounds were prepared at 100× the test concentration in DMSO by serial dilution with Biomek-FX liquid handling instrument. 33× diluted compound solutions in assay buffer were prepared in intermediate compound plate with Biomek-NX liquid handling instrument. A further 3× dilution occurred in below steps 6 and 7.
6. Add 20 microL of 33× diluted compound solutions into each well and leave the plate for 10 min under the dark at room temperature.
7. Measure activity by FDSS as follows: • Set the assay plate on the stacker of FDSS. • Start the detection of fluorescence intensity at 540 nm by 480 nm exicitation. • After 30 seconds, add 20 microL of assay buffer containing 30 microM BzATP (final 10 microM).
IC50 values for compounds of the present invention were determined from 7-point dose-response studies. Curves were generated using the average of duplicate wells for each data point. Finally, the IC50 values are calculated with the best-fit dose curve determined by XLfit (ID Business Solutions Ltd.).

Chain of rat P2X7 (Q64663 whole entry): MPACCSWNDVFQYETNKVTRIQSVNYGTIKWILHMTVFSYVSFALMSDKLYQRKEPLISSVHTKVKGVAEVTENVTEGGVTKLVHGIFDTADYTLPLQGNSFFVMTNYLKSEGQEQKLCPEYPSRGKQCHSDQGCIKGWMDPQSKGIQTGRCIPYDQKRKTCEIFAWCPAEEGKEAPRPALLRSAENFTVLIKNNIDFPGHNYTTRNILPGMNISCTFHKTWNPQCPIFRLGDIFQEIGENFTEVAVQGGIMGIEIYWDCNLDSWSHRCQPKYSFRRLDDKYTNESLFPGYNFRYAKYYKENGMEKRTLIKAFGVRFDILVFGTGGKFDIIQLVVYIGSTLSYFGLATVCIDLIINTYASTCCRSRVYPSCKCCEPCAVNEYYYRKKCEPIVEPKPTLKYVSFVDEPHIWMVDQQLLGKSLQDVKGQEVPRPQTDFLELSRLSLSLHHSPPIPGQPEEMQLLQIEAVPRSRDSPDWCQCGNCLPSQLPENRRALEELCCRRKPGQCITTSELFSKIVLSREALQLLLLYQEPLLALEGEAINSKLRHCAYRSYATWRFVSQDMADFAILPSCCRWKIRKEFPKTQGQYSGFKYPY
Chain of human P2X7 (Q99572 whole entry): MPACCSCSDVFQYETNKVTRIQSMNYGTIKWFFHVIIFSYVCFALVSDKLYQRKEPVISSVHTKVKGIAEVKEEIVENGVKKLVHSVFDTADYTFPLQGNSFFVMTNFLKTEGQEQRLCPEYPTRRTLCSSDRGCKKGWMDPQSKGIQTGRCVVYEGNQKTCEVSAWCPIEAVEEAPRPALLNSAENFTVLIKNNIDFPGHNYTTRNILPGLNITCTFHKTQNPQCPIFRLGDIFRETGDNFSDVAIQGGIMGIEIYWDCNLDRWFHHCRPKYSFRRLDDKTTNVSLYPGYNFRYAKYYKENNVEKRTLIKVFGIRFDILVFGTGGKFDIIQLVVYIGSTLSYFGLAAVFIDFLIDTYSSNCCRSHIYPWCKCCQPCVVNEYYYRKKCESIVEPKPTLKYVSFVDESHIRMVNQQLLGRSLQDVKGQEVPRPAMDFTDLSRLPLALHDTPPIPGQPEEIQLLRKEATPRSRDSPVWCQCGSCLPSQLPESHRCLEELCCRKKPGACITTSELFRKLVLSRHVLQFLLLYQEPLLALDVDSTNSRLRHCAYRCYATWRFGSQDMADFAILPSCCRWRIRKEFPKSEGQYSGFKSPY

SMILES	IC50 (human P2X7)	IC50 (rat P2X7)
O=C(NCc1ccc(F)c(F)c1F)[C@]1(F)CC[C@@](O)(CO)c2ncccc21 [Example 308, (5S,8S)-5-fluoro-8-hydroxy-8-(hydroxymethyl)-N-(2,3,4-trifluorobenzyl)-5,6,7,8-tetrahydroquinoline-5-carboxamide]	101 to 300 nM	< 1000 nM
O=C(NCc1ccc(Cl)c(F)c1)[C@]1(F)CC[C@H](O)c2ncccc21 [Example 206, (5S,8S)-N-(4-chloro-3-fluorobenzyl)-5-fluoro-8-hydroxy-5,6,7,8-tetrahydroquinoline-5-carboxamide]	101 to 300 nM	< 1000 nM
O=C(NCc1ccc(Cl)cc1Cl)[C@]1(F)CC[C@H](OCC(O)CO)c2ncccc21 (stereo partly drawn) [Example 349, (5S,8S)—N-(2,4-dichlorobenzyl)-8-(2,3-dihydroxypropoxy)-5-fluoro-5,6,7,8-tetrahydroquinoline-5-carboxamide]	< 50 nM	< 1000 nM
O=C1CC[C@@](F)(C(=O)NCc2ccc(F)c(F)c2F)c2cccnc21 [Example 254, (S)-5-fluoro-8-oxo-N-(2,3,4-trifluorobenzyl)-5,6,7,8-tetrahydro-quinoline-5-carboxamide]	301 to 1000 nM	< 1000 nM
O=C1NC[C@@]2(CC[C@@](F)(C(=O)NCc3ccc(Cl)cc3Cl)c3cccnc32)O1 [Example 292, (5R,5′S)-N-(2,4-dichlorobenzyl)-5′-fluoro-2-oxo-6′,7′-dihydro-5′H-spiro [oxazolidine-5,8′-quinoline]-5′-carboxamide]	50 to 100 nM	< 1000 nM
Cc1cc(Cl)cc(Cl)c1CNC(=O)C1(F)CCC(O)(CO)c2ncccc21 (stereo not drawn) [Example 34, N-(2,4-dichloro-6-methylbenzyl)-5-fluoro-8-hydroxy-8-(hydroxymethyl)-5,6,7,8-tetrahydroquinoline-5-carboxamide]	< 50 nM	< 1000 nM
Cc1cc(Cl)cc(Cl)c1CNC(=O)[C@H]1C[C@H](O)c2ncccc21 [Example 83, (5S,7S)-N-(2,4-dichloro-6-methylbenzyl)-7-hy-droxy-5,7-dihydro-5H-cyclopenta[b]pyridin-5-carboxamide]	101 to 300 nM	< 1000 nM
O=C(NCc1ccc(Cl)cc1Cl)[C@@]1(F)CC[C@@H](O)c2ncccc21 [Example 132, (5R,8R)-N-(2,4-dichlorobenzyl)-5-fluoro-8-hydroxy-5,6,7,8-tetrahydroquinoline-5-carboxamide]	< 50 nM	< 1000 nM
N#Cc1ccc(CNC(=O)[C@]2(F)CC[C@H](O)c3ncccc32)c(F)c1 [Example 201, (5S,8S)-N-(4-cyano-2-fluorobenzyl)-5-fluoro-8-hydroxy-5,6,7,8-tetrahydroquinoline-5-carboxamide]	50 to 100 nM	< 1000 nM
O=C1COC[C@]2(CC[C@@](F)(C(=O)NCc3ccc(Cl)cc3Cl)c3cccnc32)N1 (relative stereo) [Example 61, (3R*,5′S*)-N-(2,4-dichlorobenzyl)-5′-fluoro-5-oxo-6′,7′-dihydro-5′H-spiro[morpholine-3,8′-quinoline]-5′-carboxamide]	< 50 nM	< 1000 nM
O=C(NCc1c(F)cc(F)cc1F)[C@]1(F)CC[C@H](O)c2ncccc21 [Example 180, (5S,8S)-5-fluoro-8-hydroxy-N-(2,4,6-trifluorobenzyl)-5,6,7,8-tetrahydroquinoline-5-carboxamide]	< 50 nM	< 1000 nM
Cc1cc(Cl)cc(Cl)c1CNC(=O)C1CCC(O)(CN)c2ncccc21 (stereo not drawn) [Example 43, 8-(aminomethyl)-N-(2,4-dichloro-6-meth-ylbenzyl)-8-hydroxy-5,6,7,8-tetrahydroquinoline-5-carboxamide]	< 50 nM	< 1000 nM
O=C(NCc1ccc(Cl)cc1Cl)[C@]1(F)CC[C@H](O)c2ncc(F)cc21 [Example 241, (5S,8S)-N-(2,4-dichlorobenzyl)-3,5-difluoro-8-hydroxy-5,6,7,8-tetrahydroquinoline-5-carboxamide]	< 50 nM	< 1000 nM
N#CC[C@]1(O)CC[C@@](F)(C(=O)NCc2c(Cl)cc(F)cc2CO)c2cccnc21 [Example 284, (5S,8R)-N-(2-chloro-4-fluoro-6-(hydroxymethyl)benzyl)-8-(cyanomethyl)-5-fluoro-8-hydroxy-5,6,7,8-tetrahydroquinoline-5-carboxamide]	< 50 nM	< 1000 nM
O=C(NCc1ccc(Cl)cc1Cl)[C@@H]1CC[C@@H](O)c2ncccc21 [Example 87, (5R,8R)-N-(2,4-dichloro-benzyl)-8-hydroxy-5,6,7,8-tetrahydroquinoline-5-carboxamide]	50 to 100 nM	< 1000 nM
O=C(NCc1ccc(F)cc1Cl)[C@]1(F)CC[C@@H](O)c2ncccc21 [Example 107, (5S,8R)-N-(2-chloro-4-fluorobenzyl)-5-fluoro-8-hydroxy-5,6,7,8-tetrahydroquinoline-5-carboxamide]	101 to 300 nM	< 1000 nM
O=C(NCc1ccc(Cl)cc1F)[C@]1(F)CC[C@H](O)c2ncccc21 [Example 146, (5S,8S)-N-(4-chloro-2-fluorobenzyl)-5-fluoro-8-hydroxy-5,6,7,8-tetrahydroquinoline-5-carboxamide]	< 50 nM	< 1000 nM
O=C(NCc1ccc(Cl)cc1F)[C@]1(F)CC[C@](O)(CO)c2ncccc21 [Example 315, (5S,8R)-N-(4-chloro-2-fluorobenzyl)-5-fluoro-8-hydroxy-8-(hydroxymethyl)-5,6,7,8-tetrahydroquinoline-5-carboxamide]	1000 to 3000 nM	< 1000 nM
O=C(NCc1ccc(F)c(F)c1F)[C@]1(F)CC[C@H](O)c2ncccc21 [Example 137, (5S,8S)-5-fluoro-8-hydroxy-N-(2,3,4-trifluorobenzyl)-5,6,7,8-tetrahydroquinoline-5-carboxamide]	< 50 nM	< 1000 nM
C[C@]1(O)CC[C@@](F)(C(=O)NCc2c(F)cc(Cl)cc2F)c2cccnc21 [Example 269, (5S,8S)-N-(4-chloro-2,6-difluorobenzyl)-5-fluoro-8-hydroxy-8-methyl-5,6,7,8-tetrahydroquinoline-5-carboxamide]	< 50 nM	< 1000 nM
O=C(NCc1cccc(C(F)(F)F)c1Cl)[C@]1(F)CC[C@H](O)c2ncccc21 [Example 129, (5S,8S)-N-(2-chloro-3-(trifluoromethyl)benzyl)-5-fluoro-8-hydroxy-5,6,7,8-tetrahydroquinoline-5-carboxamide]	< 50 nM	< 1000 nM
O=C(NCc1ccc(Cl)cc1Cl)[C@@]1(F)CC[C@@](O)(CO)c2ncccc21 [Example 303, (5R,8S)-N-(2,4-dichlorobenzyl)-5-fluoro-8-hydroxy-8-(hydroxymethyl)-5,6,7,8-tetrahydroquinoline-5-carboxamide]	1000 to 3000 nM	< 1000 nM
O=C(NC1CC1c1ccc(Cl)cc1Cl)[C@]1(F)CC[C@H](O)c2ncccc21 (stereo partly drawn) [Example 238, (5S,8S)-N-((trans)-2-(2,4-dichlorophenyl)cyclopropyl)-5-fluoro-8-hydroxy-5,6,7,8-tetrahydroquinoline-5-carboxamide]	< 50 nM	< 1000 nM
O=C(NCc1cccc(Cl)c1)[C@]1(F)CC[C@H](O)c2ncccc21 [Example 205, (5S,8S)-N-(3-chlorobenzyl)-5-fluoro-8-hydroxy-5,6,7,8-tetrahydroquinoline-5-carboxamide]	50 to 100 nM	< 1000 nM
O=C(NCc1ccc(Cl)c(F)c1F)[C@]1(F)CC[C@@](O)(CO)c2ncccc21 [Example 322, (5S,8S)-N-(4-chloro-2,3-difluorobenzyl)-5-fluoro-8-hydroxy-8-(hydroxymethyl)-5,6,7,8-tetrahydroquinoline-5-carboxamide]	101 to 300 nM	< 1000 nM
O=C(NCC(c1ccc(Cl)cc1)N1CCC(F)(F)CC1)[C@]1(F)CC[C@H](O)c2ncccc21 (stereo partly drawn) [Example 232, (5S,8S)-N-(2-(4-chlorophenyl)-2-(4,4-difluoropiperidin-1-yl)ethyl)-5-fluoro-8-hydroxy-5,6,7,8-tetrahydroquinoline-5-carboxamide]	< 50 nM	< 1000 nM
O=C(NCc1cccc(F)c1Cl)[C@]1(F)CC[C@H](O)c2ncccc21 [Example 169, (5S,8S)-N-(2-chloro-3-fluorobenzyl)-5-fluoro-8-hydroxy-5,6,7,8-tetrahydroquinoline-5-carboxamide]	< 50 nM	< 1000 nM
